Data as given in publication PMC4062305 (Journal of medicinal chemistry, 2013).
“Also recorded” adds a separate entry of the source.

Target: T1, FAAH activity in brain (Mus musculus, UniProt O08914)
T1 sequence (O08914 1-579): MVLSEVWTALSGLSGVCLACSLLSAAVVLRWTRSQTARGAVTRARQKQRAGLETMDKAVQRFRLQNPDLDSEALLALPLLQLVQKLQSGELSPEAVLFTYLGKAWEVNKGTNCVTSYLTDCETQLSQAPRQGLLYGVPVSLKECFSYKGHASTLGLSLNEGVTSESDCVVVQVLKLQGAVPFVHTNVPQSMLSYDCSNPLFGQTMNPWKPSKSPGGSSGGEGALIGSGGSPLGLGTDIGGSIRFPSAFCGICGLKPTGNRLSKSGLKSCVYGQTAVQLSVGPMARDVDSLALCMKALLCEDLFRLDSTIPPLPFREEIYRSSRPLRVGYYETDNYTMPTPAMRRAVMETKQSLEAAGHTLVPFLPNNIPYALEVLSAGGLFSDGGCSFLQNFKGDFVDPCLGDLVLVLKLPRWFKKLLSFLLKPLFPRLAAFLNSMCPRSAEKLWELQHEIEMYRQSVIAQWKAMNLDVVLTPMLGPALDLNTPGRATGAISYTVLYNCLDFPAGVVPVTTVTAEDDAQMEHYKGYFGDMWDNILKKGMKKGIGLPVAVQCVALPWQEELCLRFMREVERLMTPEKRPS
Test: Ex vivo FAAH inhibition in brain after systemic administration
Design: species or system Swiss Webster mice
Details: s.c. doses up to 40 or 75 mg/kg, 1 h after injection

Row | Structure (SMILES) | Access to the brain in dose-exploration study (brain FAAH inhibition)
1 | N.NC(=O)c1cccc(-c2cc(OC(=O)NC3CCCCC3)ccc2OS(=O)(=O)O)c1 [compound 30, Ammonium Cyclohexylcarbamic Acid 3’-Carbamoyl-6-sulfatebiphenyl-3-yl Ester] | did not enter the brain, even at the highest dosage tested
2 | CC(=O)Nc1cccc(-c2cc(OC(=O)NC3CCCCC3)ccc2O)c1 [7c, Cyclohexylcarbamic Acid 3’-Acetamido-6-hydroxybiphenyl-3-yl Ester] | significantly higher brain penetration relative to 3, 7d and 7e at all doses tested
3 | NC(=O)c1cccc(-c2cc(OC(=O)NC3CCCCC3)ccc2C(=O)O)c1 [compound 29, Cyclohexylcarbamic Acid 3’-Carbamoyl-6-carboxybiphenyl-3-yl Ester] | failed to enter the brain even at the highest dose tested; also recorded: did not enter the brain, even at the highest dosage tested
